Assay results: patent US12590071B2, “Hydrazone derivative in which terminal amine group is substituted with aryl group or heteroaryl group, and use thereof” (KOREA INSTITUTE OF SCIENCE AND TECHNOLOGY, priority 2018, dated 2026)

Key:
CYP1A2 = biological target: T1, CYP1A2 (Homo sapiens, UniProt P05177); experiment: Inhibition of CYP coenzyme activity in human liver microsomes; type: in vitro ADME; details: compound 10 PM (so in the source); human liver microsomes 0.25 mg/mL; substrate phenacetin; 15 minutes
T1 construct: human liver microsomes (0.25 mg/mL); from tissue; host or cells: human liver microsomes
T1 sequence (P05177 1-516): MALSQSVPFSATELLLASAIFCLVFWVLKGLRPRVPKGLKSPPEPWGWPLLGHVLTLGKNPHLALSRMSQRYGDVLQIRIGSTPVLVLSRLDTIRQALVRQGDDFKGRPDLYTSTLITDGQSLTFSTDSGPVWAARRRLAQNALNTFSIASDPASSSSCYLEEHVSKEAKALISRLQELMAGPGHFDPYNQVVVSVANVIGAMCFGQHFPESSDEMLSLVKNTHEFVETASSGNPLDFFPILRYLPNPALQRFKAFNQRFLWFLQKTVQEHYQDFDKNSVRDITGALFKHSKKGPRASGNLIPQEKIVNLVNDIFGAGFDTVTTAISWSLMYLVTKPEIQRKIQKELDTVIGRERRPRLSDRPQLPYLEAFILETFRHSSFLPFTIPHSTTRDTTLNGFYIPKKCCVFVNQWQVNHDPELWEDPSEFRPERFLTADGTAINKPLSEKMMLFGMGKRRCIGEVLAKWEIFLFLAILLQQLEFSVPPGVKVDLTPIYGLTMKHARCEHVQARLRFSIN
Outline: (§1)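 Human liver microsomes (0.25 mg/mL) in 0.1 M phosphate pH 7.4 with a substrate cocktail (phenacetin 50 μM, diclofenac 10 μM, S-mephenytoin 100 μM, dextromethorphan 5 μM, midazolam 2.5 μM) and compound at 0 or 10 μM. Preincubated 5 min at 37 °C, then 15 min with NADPH system. Metabolites quantified by LC-MS/MS (MRM).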

CYP2C9 = biological target: T2, CYP2C9 (Homo sapiens, UniProt P11712); experiment: as above; type: in vitro ADME; details: compound 10 PM (so in the source); human liver microsomes 0.25 mg/mL; substrate diclofenac; 15 minutes
T2 construct: human liver microsomes (0.25 mg/mL); from tissue; host or cells: human liver microsomes
Outline: as §1

CYP2C19 = biological target: T3, CYP2C19 (Homo sapiens, UniProt P33261); experiment: as above; type: in vitro ADME; details: compound 10 PM (so in the source); human liver microsomes 0.25 mg/mL; substrate S-mephenytoin; 15 minutes
T3 construct: human liver microsomes (0.25 mg/mL); from tissue; host or cells: human liver microsomes
Outline: as §1

CYP2D6 = biological target: T4, CYP2D6 (Homo sapiens, UniProt P10635); experiment: as above; type: in vitro ADME; details: compound 10 PM (so in the source); human liver microsomes 0.25 mg/mL; substrate dextromethorphan; 15 minutes
T4 construct: human liver microsomes (0.25 mg/mL); from tissue; host or cells: human liver microsomes
Outline: as §1

[1] = Liver microsomal stability (dog); type: in vitro ADME; details: amount of substrate remaining; 1 μM, 0.25 mg/mL microsomes, 37° C., 30 minutes
Outline: (§2)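 Compound at 1 μM with microsomes (0.25 mg/mL each species) in 0.1 M phosphate buffer pH 7.4, preincubated 5 min at 37 °C, then 30 min at 37 °C after NADPH-generating system addition. Quenched with acetonitrile plus internal standard; remaining substrate measured by LC-MS/MS.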

[2] = Pharmacokinetics in SD rat (plasma PK parameters); type: in vivo; details: for AUCall / clearance / half-life / Cmax / Tmax: SD rat plasma; for F: SD rat, PO 10 mg/kg versus IV
Protocol: Specifically, an SD rat of 7 to 8 weeks of age (Core Tech, Hana Trading Co., Ltd.) having a body weight of about 250 g to 300 g was purchased, and was managed in a simple breeding room for small animals set to a temperature of 22° C.±2° C., a relative humidity of 50%±5%, a lighting time of 12 hours (light up at 8:00 A.M., turn off at 8:00 P.M.), and an illuminance of 150 lux to 300 lux. During the entire test period, feed was freely provided, RO water was freely provided, and fasting was performed for 16 hours before the oral administration of a drug. After preparing a drug under the conditions shown in Table 5 below, the drug was intravenously injected (IV) or orally administered (PO). 500 µL of transfused blood was collected in a tube containing sodium heparin and centrifuged at 2° C. to 8° C. at 8,000 rpm for 6 minutes to obtain plasma from the blood. The obtained plasma was added to 180 μL of acetonitrile containing internal standard materials, vortexed, and then centrifuged at 15,000 rpm at 4° C. for 5 minutes to obtain a supernatant. The obtained supernatant was analyzed by LC-MS/MS.
Specific PK parameters were acquired using the Phoenix WinNonlin version 6.4 program (Phersight, USA) and wore calculated with a non-compartmental analysis model.

[3] = Liver microsomal stability (human); type: in vitro ADME; details: amount of substrate remaining; 1 μM, 0.25 mg/mL microsomes, 37° C., 30 minutes
Outline: as §2

[4] = Liver microsomal stability (rat); type: in vitro ADME; details: amount of substrate remaining; 1 μM, 0.25 mg/mL microsomes, 37° C., 30 minutes
Outline: as §2

T4 sequence (P10635 whole entry): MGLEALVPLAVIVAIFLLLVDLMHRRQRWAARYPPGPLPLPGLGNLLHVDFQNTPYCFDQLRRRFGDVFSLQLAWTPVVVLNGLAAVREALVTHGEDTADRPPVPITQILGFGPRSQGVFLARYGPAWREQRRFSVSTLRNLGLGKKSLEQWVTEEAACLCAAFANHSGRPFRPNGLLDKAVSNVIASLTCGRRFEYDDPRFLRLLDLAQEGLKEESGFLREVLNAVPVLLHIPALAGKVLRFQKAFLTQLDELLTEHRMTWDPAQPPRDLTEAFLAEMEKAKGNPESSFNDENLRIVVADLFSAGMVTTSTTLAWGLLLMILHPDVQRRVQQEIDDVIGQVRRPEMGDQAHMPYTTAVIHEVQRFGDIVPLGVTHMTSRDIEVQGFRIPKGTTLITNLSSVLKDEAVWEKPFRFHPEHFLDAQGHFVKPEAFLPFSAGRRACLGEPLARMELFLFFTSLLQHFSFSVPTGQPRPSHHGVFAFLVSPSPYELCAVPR
T2 sequence (P11712 whole entry): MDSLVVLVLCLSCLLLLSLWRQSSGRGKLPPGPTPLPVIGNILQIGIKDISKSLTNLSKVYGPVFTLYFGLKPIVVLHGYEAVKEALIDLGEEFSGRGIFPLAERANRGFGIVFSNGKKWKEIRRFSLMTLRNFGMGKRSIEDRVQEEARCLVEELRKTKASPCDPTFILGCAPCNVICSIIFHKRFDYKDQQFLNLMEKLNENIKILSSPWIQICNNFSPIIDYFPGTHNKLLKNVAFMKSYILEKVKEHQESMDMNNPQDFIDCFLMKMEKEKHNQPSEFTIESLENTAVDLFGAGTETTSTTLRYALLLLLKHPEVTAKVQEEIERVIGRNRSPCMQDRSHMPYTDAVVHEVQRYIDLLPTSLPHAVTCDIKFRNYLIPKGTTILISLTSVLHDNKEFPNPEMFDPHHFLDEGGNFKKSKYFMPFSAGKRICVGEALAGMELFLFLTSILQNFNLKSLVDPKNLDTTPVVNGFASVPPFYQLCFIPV
T3 sequence (P33261 whole entry): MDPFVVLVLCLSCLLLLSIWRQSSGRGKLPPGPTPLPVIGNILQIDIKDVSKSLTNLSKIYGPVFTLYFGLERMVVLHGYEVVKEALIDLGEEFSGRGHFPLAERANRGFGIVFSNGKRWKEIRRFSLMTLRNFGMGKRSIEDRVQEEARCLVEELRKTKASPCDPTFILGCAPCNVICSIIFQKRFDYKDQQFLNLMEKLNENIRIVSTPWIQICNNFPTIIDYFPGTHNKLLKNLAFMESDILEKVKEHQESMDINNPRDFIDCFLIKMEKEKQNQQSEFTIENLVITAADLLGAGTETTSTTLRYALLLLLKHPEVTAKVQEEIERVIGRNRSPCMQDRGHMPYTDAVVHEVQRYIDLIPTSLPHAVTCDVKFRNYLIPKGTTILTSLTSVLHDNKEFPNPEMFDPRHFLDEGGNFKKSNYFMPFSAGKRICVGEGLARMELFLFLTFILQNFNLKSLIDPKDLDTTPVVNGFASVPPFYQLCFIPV

| SMILES | inhibition effects of CYP coenzyme activity, CYP1A2 (CYP1A2) | inhibition effects of CYP coenzyme activity, CYP2C9 (CYP2C9) | inhibition effects of CYP coenzyme activity, CYP2C19 (CYP2C19) | inhibition effects of CYP coenzyme activity, CYP2D6 (CYP2D6) | liver microsomal stability, Dog (%) [1] [%] | AUCall ([2]; IV 1 mg/kg) | clearance ([2]; IV 1 mg/kg) [mL/min/kg] | half-life ([2]; IV 1 mg/kg) [h] | AUCall ([2]; PO 10 mg/kg) | Cmax ([2]; PO 10 mg/kg) [ng/mL] | Tmax ([2]; PO 10 mg/kg) [h] | half-life ([2]; PO 10 mg/kg) [h] | F [2] [%] | liver microsomal stability, Human (%) [3] [%] | liver microsomal stability, Rat (%) [4] [%] | further results |
| --- | --- | --- | --- | --- | --- | --- | --- | --- | --- | --- | --- | --- | --- | --- | --- | --- |
| N#CC(C#N)=NNc1ccc(-c2ncccn2)cc1 [Compound 1, (4-(pyrimidin-2-yl)phenyl)carbonohydrazonoyl dicyanide] | 76.9 | 63.2 | 90.7 | 98.4 | 5.7 | 7260.0 ± 580.1 hr, ng/mL | 11.5 ± 0.9 | 1.1 ± 1 | 4652.8 ± 1158.9 hr, ng/mL | 1840 ± 609 | 1.7 ± 2.9 | 1.6 ± 1.6 | 32 | 44.1 | 28.3 |  |
| N#CC(C#N)=NNc1ccc(-c2ncc(F)cn2)cc1 [Compound 2, (4-(5-fluoropyrimidin-2-yl)phenyl)carbonohydrazonoyl dicyanide] | 84.3 | 57.7 | 88.8 | 74.3 | 92.1 | 7335.6 ± 1794.1 hr, ng/mL | 2.4 ± 0.7 | 1.2 ± 0.3 | 19890.5 ± 6049.3 hr, ng/mL |  |  |  | 27.1 | 92.7 | 97.2 | Cmax ([2]; IV 1 mg/kg): 4280 ± 1390 ng/mL; Tmax ([2]; IV 1 mg/kg): 5.5 ± 1 h |
| Cc1ncc(-c2ccc(NN=C(C#N)C#N)cc2)s1 [Compound 11, (4-(2-methylthiazol-5-yl)phenyl)carbonohydrazonoyl dicyanide] | 80.1 | 33.2 | 83.4 | 81.9 | 79.6 |  |  |  | 19169.2 hr, ng/mL | 6900 | 0.25 | 2.96 | 32.5 | 87.5 | 49.6 | AUCall ([2]; IV 2 mg/kg): 11800.37 hr, ng/mL; Cmax ([2]; IV 2 mg/kg): 10700 ng/mL; Tmax ([2]; IV 2 mg/kg): 0.08 h; clearance ([2]; IV 2 mg/kg): 2.84 mL/min/kg; half-life ([2]; IV 2 mg/kg): 1.05 h |
| N#CC(C#N)=NNc1ccc(-c2cnc3ccnn3c2)cc1 [Compound 50, (4-(pyrazolo[1,5-a]pyrimidin-6-yl)phenyl)carbonohydrazonoyl dicyanide] | 80.7 | 73 | 83.8 | >100 | 88.9 | 8149.7 ± 1421.0 hr, ng/mL | 2 ± 0.3 | 1.9 ± 0.3 | 6726.6 ± 2700.2 hr, ng/mL | 1330 ± 788 | 5 ± 2 |  | 8.3 | 81.1 | 85.7 |  |
| Cc1cnc(C(=O)Nc2nc3ccc(NN=C(C#N)C#N)cc3s2)cn1 [Compound 93, (2-(5-methylpyrazine-2-carboxamido)benzo[d]thiazol-6-yl)carbonohydrazonoyl dicyanide] | 80.7 | 45.5 | 91.6 | 85.6 | 60.4 | 6059.4 ± 548.0 hr, ng/mL | 2.7 ± 0.3 | 1.7 ± 0.1 | 13884.8 ± 3420.9 hr, ng/mL | 2570 ± 423 | 5 ± 1.2 |  | 22.9 | 83.9 | 63.3 |  |
